Assay results published in PMC10303271, “Synthesis and Receptor Binding Studies of α5 GABAAR Selective Novel Imidazodiazepines Targeted for Psychiatric and Cognitive Disorders” (Molecules, 2023).

Legend:
5-HT7A = target: T1, 5-HT7A (Homo sapiens, UniProt P34969); assay: PDSP primary binding 5-HT7A; details: 1.5 h; primary binding, 10,000 nM; last figure of the line = mean of the 4 before it; read-out: 5-HT7A, PDSP raw data, mean
T1 construct: purchased NIMH Psychoactive Drug Screening Program (PDSP)
T1 sequence (P34969 1-445 isoform P34969-2): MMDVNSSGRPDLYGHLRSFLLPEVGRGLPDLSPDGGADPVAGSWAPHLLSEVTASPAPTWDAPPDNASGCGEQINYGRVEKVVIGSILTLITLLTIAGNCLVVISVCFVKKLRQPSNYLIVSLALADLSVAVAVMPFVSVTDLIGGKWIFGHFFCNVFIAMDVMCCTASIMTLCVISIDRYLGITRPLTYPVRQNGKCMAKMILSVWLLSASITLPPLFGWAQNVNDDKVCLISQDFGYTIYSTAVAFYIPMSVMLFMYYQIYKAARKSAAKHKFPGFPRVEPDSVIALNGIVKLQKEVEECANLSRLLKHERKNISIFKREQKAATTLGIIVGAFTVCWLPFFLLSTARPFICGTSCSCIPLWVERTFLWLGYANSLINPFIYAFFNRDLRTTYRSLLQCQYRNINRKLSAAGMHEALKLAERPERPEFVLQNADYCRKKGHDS
Method: (§1) To determine if any off-target receptor-binding effects are present, all the novel ligands were sent to the National Institute of Mental Health (NIMH), Psychoactive Drug Screening Program (PDSP). The ligands were screened over a panel of 47 receptors, ion channels, and transporters to determine any other possible interactions with […]. The hERG-binding was also determined. […] No binding of the test compounds to calcium channels was observed. […] It is necessary to screen the compounds for hERG-binding during the early process of drug discovery. The unintentional binding of many drugs to hERG can cause blockade of hERG K+ channels in the heart, which can cause many side effects including cardiac arrhythmias and sudden death. […] All of the α5 imidazodiazepines were tested for hERG-binding.
(§2) The NIMH PDSP assay protocol book [https://kidbdev.med.unc.edu/databases/PDSP%20Protocols%20II%202013-03-28.pdf accessed on 23 April 2023]. describes the protocols for primary and secondary radio-ligand binding assays. These assays were carried out in a final volume of 125 µL per well in the appropriate binding buffer.
(§3) The binding of a ligand to a receptor, ion channel, or transporter was determined in the […] of 10 µM of the appropriate reference compound. […] Plates were incubated in the dark for 90 min at rt, and the reactions were stopped by vacuum filtration onto 0.3% polyethyleneimine (PEI) soaked 96-well filter mats using a 96-well Filtermateharvester. This was followed by three washes with cold PBS buffer. Radioactivity was then counted on a Microbeta counter. Nonlinear regression was used to analyze the data with N = 6 replicates.

5-HT2C = target: T2, 5-HT2C (Homo sapiens, UniProt P28335); assay: PDSP primary binding 5-HT2C; details: 1.5 h; primary binding, 10,000 nM; last figure of the line = mean of the 4 before it; read-out: 5-HT2C, PDSP raw data, mean
T2 construct: purchased NIMH Psychoactive Drug Screening Program (PDSP)
T2 sequence (P28335 33-458): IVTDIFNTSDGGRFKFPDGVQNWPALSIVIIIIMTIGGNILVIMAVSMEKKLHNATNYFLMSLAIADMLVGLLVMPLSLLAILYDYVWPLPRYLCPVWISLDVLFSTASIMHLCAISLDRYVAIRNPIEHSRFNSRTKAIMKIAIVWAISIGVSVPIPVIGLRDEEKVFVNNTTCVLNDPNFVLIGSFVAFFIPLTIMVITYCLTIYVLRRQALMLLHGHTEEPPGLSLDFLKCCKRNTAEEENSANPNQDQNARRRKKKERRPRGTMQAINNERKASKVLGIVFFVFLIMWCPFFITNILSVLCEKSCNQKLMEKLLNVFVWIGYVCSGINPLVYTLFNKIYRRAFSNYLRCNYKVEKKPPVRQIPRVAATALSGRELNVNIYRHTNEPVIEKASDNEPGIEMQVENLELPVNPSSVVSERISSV
Method: as §1, §2, §3

V2 = target: T3, V2 (Homo sapiens, UniProt P30518); assay: PDSP primary binding V2; details: primary binding, 10,000 nM; last figure of the line = mean of the 4 before it; read-out: V2, PDSP raw data, mean
T3 construct: purchased NIMH Psychoactive Drug Screening Program (PDSP)
T3 sequence (P30518 whole entry): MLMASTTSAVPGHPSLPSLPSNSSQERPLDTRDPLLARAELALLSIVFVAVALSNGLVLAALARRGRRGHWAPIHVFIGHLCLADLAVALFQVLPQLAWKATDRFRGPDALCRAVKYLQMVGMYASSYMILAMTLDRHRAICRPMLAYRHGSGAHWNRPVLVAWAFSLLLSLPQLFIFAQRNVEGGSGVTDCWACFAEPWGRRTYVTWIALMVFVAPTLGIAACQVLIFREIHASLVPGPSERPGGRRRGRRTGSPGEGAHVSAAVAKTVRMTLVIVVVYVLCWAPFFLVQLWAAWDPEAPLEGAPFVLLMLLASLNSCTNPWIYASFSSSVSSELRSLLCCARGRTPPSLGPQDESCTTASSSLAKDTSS
Method: as §1, §2, §3

A1 = target: T4, A1 (Homo sapiens, UniProt P30542); assay: PDSP primary binding A1; details: 1.5 h; primary binding, 10,000 nM; last figure of the line = mean of the 4 before it; read-out: A1, PDSP raw data, mean
T4 construct: purchased NIMH Psychoactive Drug Screening Program (PDSP)
T4 sequence (P30542 1-326): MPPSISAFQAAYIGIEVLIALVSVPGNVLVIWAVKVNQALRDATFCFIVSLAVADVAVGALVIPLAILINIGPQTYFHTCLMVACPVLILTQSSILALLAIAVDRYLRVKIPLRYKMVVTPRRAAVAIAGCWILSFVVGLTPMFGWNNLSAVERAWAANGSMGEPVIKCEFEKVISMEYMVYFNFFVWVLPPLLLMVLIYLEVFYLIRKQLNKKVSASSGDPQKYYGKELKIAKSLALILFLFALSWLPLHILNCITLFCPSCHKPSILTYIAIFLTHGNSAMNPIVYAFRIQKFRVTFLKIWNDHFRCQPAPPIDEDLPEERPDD
Method: as §1, §2, §3

5-HT1E = target: T5, 5-HT1E (Homo sapiens, UniProt P28566); assay: PDSP primary binding 5-HT1E; details: primary binding, 10,000 nM; last figure of the line = mean of the 4 before it
T5 construct: purchased NIMH Psychoactive Drug Screening Program (PDSP)
T5 sequence (P28566 whole entry): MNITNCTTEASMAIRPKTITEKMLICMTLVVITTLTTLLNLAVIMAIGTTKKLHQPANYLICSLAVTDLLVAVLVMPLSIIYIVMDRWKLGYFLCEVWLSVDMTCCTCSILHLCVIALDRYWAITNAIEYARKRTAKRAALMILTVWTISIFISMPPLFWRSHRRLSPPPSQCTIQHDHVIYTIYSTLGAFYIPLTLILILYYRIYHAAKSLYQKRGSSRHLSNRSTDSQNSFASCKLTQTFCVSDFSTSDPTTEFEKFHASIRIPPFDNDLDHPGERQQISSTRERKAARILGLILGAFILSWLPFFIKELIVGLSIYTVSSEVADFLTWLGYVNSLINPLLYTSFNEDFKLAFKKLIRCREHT
Method: as §1, §2, §3

5-HT1A = target: T6, 5-HT1A (Homo sapiens, UniProt P08908); assay: PDSP primary binding 5-HT1A; details: 1.5 h; primary binding, 10,000 nM; last figure of the line = mean of the 4 before it; read-out: 5-HT1A, PDSP raw data, mean
T6 construct: purchased NIMH Psychoactive Drug Screening Program (PDSP)
T6 sequence (P08908 1-422): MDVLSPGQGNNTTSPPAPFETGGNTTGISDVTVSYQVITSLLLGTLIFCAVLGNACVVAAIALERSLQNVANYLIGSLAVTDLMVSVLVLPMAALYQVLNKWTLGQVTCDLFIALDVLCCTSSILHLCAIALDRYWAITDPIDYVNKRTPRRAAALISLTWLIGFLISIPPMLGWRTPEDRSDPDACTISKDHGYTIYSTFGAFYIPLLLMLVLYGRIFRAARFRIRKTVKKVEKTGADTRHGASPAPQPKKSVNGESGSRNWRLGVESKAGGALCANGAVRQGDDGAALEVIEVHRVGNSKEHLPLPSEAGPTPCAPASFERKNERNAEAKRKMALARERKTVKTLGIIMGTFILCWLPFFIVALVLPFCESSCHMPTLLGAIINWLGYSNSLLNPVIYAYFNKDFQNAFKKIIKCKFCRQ
Method: as §1, §2, §3

Alpha4Beta4 = target: T7, Alpha4Beta4 (Rattus norvegicus, UniProt P09483+P12392); assay: PDSP primary binding Alpha4Beta4; details: primary binding, 10,000 nM; last figure of the line = mean of the 4 before it; read-out: Alpha4Beta4, PDSP raw data, mean
T7 construct: purchased NIMH Psychoactive Drug Screening Program (PDSP)
T7 sequence (P09483 31-630): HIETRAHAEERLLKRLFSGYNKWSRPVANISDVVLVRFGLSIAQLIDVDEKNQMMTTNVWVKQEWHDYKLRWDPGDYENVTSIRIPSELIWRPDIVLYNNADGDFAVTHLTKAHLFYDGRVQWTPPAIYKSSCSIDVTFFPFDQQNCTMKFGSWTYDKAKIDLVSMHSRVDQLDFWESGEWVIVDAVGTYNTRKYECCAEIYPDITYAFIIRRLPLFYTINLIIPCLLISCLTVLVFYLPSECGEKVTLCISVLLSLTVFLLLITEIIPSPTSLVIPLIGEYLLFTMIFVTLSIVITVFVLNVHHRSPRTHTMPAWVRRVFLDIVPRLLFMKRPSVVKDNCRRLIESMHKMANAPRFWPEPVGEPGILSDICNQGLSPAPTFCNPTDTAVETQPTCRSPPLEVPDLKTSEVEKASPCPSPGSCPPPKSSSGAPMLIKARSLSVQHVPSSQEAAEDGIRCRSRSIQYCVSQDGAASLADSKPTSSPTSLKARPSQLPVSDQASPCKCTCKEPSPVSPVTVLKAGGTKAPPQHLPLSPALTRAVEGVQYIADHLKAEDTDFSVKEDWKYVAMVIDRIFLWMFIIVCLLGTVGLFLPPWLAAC
T7 sequence (P12392 21-495): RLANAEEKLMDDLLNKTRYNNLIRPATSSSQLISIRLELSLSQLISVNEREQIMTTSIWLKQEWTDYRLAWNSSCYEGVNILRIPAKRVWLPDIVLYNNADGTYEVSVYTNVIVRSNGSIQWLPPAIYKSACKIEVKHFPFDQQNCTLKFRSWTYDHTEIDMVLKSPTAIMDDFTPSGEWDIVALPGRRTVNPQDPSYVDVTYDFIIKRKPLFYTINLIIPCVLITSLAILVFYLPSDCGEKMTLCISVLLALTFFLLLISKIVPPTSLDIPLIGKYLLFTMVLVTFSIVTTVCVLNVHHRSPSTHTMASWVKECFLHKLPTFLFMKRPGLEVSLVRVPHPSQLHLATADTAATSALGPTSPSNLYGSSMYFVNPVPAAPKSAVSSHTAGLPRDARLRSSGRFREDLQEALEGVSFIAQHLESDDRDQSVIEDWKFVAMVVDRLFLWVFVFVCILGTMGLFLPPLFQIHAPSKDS
Method: as §1, §2, §3

D2 = target: T8, D2 (Homo sapiens, UniProt P14416); assay: PDSP primary binding D2; details: 1.5 h; primary binding, 10,000 nM; last figure of the line = mean of the 4 before it; read-out: D2, PDSP raw data, mean
T8 construct: purchased NIMH Psychoactive Drug Screening Program (PDSP)
T8 sequence (P14416 whole entry): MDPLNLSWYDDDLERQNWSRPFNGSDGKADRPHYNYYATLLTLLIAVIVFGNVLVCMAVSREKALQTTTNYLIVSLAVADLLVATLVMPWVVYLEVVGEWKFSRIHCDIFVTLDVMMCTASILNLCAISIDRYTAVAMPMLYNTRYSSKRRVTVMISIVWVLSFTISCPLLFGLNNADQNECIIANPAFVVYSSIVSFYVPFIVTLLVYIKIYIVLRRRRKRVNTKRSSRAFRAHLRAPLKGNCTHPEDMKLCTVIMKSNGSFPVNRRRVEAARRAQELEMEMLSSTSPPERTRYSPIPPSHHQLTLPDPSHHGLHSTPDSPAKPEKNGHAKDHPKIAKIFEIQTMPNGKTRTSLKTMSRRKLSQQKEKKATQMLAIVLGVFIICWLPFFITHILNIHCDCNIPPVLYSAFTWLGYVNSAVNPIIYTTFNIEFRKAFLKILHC
Method: as §1, §2, §3

5-HT2A = target: T9, 5-HT2A (Homo sapiens, UniProt P28223); assay: PDSP primary binding 5-HT2A; details: 1.5 h; primary binding, 10,000 nM; last figure of the line = mean of the 4 before it; read-out: 5-HT2A, PDSP raw data, mean
T9 construct: purchased NIMH Psychoactive Drug Screening Program (PDSP)
T9 sequence (P28223 whole entry): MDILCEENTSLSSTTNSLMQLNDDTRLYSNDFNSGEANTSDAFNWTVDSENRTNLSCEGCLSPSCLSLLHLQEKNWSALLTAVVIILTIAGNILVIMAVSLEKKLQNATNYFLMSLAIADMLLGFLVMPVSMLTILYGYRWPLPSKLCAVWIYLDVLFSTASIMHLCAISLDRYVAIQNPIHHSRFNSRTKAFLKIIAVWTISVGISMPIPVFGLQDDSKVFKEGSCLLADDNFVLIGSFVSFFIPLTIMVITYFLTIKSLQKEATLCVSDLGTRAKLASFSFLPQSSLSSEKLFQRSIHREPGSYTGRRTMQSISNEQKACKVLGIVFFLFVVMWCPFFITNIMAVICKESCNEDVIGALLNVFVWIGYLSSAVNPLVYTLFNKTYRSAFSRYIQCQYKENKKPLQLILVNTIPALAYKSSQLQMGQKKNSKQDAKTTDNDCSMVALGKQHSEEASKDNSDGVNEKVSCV
Method: as §1, §2, §3

SMILES	inhibition at 10 µM (5-HT7A)	inhibition at 10 µM (5-HT2C)	inhibition at 10 µM (V2)	inhibition at 10 µM (A1)	5-HT1E, PDSP raw data, mean (5-HT1E)	inhibition at 10 µM (5-HT1A)	inhibition at 10 µM (Alpha4Beta4)	inhibition at 10 µM (D2)	inhibition at 10 µM (5-HT2A)
C#Cc1ccc2c(c1)C(c1ccccc1Cl)=N[C@H](C)c1c(C(=O)N(C)CC)ncn1-2 [Compound 29]	-2.22%	-10.7%	21.9%	-6.38%	19.25%	-2.7%	-3.3%	-1.58%	-3.89%
CCc1noc(-c2ncn3c2[C@@H](C)N=C(c2ccccc2F)c2cc(Cl)ccc2-3)n1 [Compound 36, (R)-5-(8-Chloro-6-(2′-fluorophenyl)-4-methyl-4H-benzo[f]imidazo[1,5-a][1,4]diazepin-3-yl)-3-ethyl-1,2,4-oxadiazole]	1.53%	13.9%	12.6%	67.9%	5.28%	3%	10.2%	3.17%	11.1%
